Starred links: 1 amine or outer side, 2 acyl side, 3 side chain; linkers in the order of their positions; H or OH if unused. Non-standard residues stand in square brackets, D forms with d. Residues, ends and D or L forms follow the SMILES beside them. ξ: configuration not given here. X1 = Cn1c(=NC(N)=O)ccn(C2SC(C(O)C(N[*:1])C(=O)[*:2])C(O)C2O)c1=O; Orn(N5-OH,N5-Ac) = CC(=O)N(O)CCC[C@H](N)C(=O)O; ξT = CC(O)C(N)C(=O)O; ξA = CC(N)C(=O)O
Legend:
Experiment in all cases: Hole test, inhibiting areola diameter, DST agar
Format in all cases: cell-based
E. coli 14 = test system: E. coli 14; set-up: unit not given here; conditions: medium DST agar
Description: (§1) Activity against the germs listed below is found in vitro, on the basis of the diameter of the inhibiting areola.

E. coli T 7 = test system: E. coli T 7; set-up: unit not given here; conditions: medium DST agar
Description: as §1

Prot. 1017 = conditions: 1000 μg/ml, medium DST agar
Description: as §1

Staph. 133 = conditions: 1000 μg/ml, medium DST agar
Description: as §1

CC(=O)N(O)CCC[C@H](NC(=O)[C@H](CCCN(O)C(C)=O)NC(=O)[C@@H](N)CCCN(O)C(C)=O)C(=O)NC(C)C(=O)NC(C(=O)O)C(O)C1SC(n2ccc(=NC(N)=O)n(C)c2=O)C(O)C1O (some centres unmarked) [Compound 9] (H-[Orn(N5-OH,N5-Ac)][Orn(N5-OH,N5-Ac)][Orn(N5-OH,N5-Ac)][ξA][X1]-OH)
Inhibiting areola diameter E. coli 14 (E. coli 14; 10 μg/ml): 30 | Inhibiting areola diameter E. coli 14 (E. coli 14; 100 μg/ml): 34 | Inhibiting areola diameter E. coli T 7 (E. coli T 7; 10 μg/ml): 28 | Inhibiting areola diameter E. coli T 7 (E. coli T 7; 100 μg/ml): 34

CC(=O)N(O)CCC[C@H](N)C(=O)NC(C(=O)O)C(O)C1SC(n2ccc(=NC(N)=O)n(C)c2=O)C(O)C1O (some centres unmarked) [Compound 11]
Inhibiting areola diameter E. coli 14 (E. coli 14; 10 μg/ml): 18 | Inhibiting areola diameter E. coli 14 (E. coli 14; 100 μg/ml): 13 | Inhibiting areola diameter E. coli T 7 (E. coli T 7; 10 μg/ml): 13 | Inhibiting areola diameter E. coli T 7 (E. coli T 7; 100 μg/ml): 18

CC(=O)N(O)CCC[C@H](NC(=O)[C@H](CCCN(O)C(C)=O)NC(=O)[C@@H](N)CCCN(O)C(C)=O)C(=O)NC(C(=O)O)C(O)C1SC(n2ccc(=NC(N)=O)n(C)c2=O)C(O)C1O (some centres unmarked) [Compound 13]
Inhibiting areola diameter Prot. 1017 (Prot. 1017): 20 | Inhibiting areola diameter E. coli 14 (E. coli 14; 1000 μg/ml): 20 | Inhibiting areola diameter E. coli T 7 (E. coli T 7; 1000 μg/ml): 19

CC(=O)N(O)CCC[C@H](NC(=O)[C@H](CCCN(O)C(C)=O)NC(=O)[C@@H](N)CCCN(O)C(C)=O)C(=O)NC(C(=O)NC(C(=O)O)C(O)C1SC(n2ccc(=NC(N)=O)n(C)c2=O)C(O)C1O)C(C)O (some centres unmarked) [Compound 20] (H-[Orn(N5-OH,N5-Ac)][Orn(N5-OH,N5-Ac)][Orn(N5-OH,N5-Ac)][ξT][X1]-OH)
Inhibiting areola diameter Prot. 1017 (Prot. 1017): 17 | Inhibiting areola diameter Staph. 133 (Staph. 133): 25 | Inhibiting areola diameter E. coli 14 (E. coli 14; 100 μg/ml): 13 | Inhibiting areola diameter E. coli 14 (E. coli 14; 1000 μg/ml): 14 | Inhibiting areola diameter E. coli T 7 (E. coli T 7; 100 μg/ml): 14 | Inhibiting areola diameter E. coli T 7 (E. coli T 7; 1000 μg/ml): 15

CC(=O)N(O)CCC[C@H](NC(=O)[C@H](CCCN(O)C(C)=O)NC(=O)[C@@H](N)CCCN(O)C(C)=O)C(=O)NC(C(=O)O)C(O)C1SC(n2ccc(=O)n(C)c2=O)C(O)C1O (some centres unmarked) [Compound 24]
Inhibiting areola diameter Prot. 1017 (Prot. 1017): 18 | Inhibiting areola diameter E. coli 14 (E. coli 14; 1000 μg/ml): 18 | Inhibiting areola diameter E. coli T 7 (E. coli T 7; 100 μg/ml): 18

— US4626525A, “Antibiotics, preparation and use of and intermediates therefor” (Bayer Aktiengesellschaft, priority 1983, dated 1986)
